Patent US10752587B2, “Homobispiperidinyl derivatives as liver X receptor beta agonists, compositions and their use” (Merck Sharp & Dohme Corp., priority 2015, dated 2020)
pEC50: −log10 of the molar value. Read-outs that look alike come from different tables or passages of the source.

How the values were obtained:
[1] = target: T1, glutathione-S-transferase (GST) tagged LXRbeta LBD (ligand binding domain) (Homo sapiens, UniProt P55055); test: LanthaScreen TR-FRET Liver X Receptor Coactivator Assay, co-activator recruitment to LXRbeta LBD; type: biochemical
T1 construct: purchased Invitrogen pv4658.pps
T1 sequence (P55055 222-460 limits assumed): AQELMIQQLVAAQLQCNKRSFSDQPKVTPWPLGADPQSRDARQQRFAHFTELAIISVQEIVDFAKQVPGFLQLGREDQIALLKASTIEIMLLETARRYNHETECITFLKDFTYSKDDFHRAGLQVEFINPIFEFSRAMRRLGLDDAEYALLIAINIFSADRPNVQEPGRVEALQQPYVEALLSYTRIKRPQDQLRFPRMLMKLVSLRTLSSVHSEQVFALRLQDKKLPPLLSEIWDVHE
Summary of the method: (§1)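 GST-tagged LBD added to test compound, then fluorescein-labelled coactivator peptide plus terbium anti-GST antibody; incubated at room temperature, TR-FRET read. Potency given as inflection point and efficacy as Emax relative to reference dual agonist T0901317.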

[2] = target: T2, glutathione-S-transferase (GST) tagged LXRalpha LBD (ligand binding domain) (Homo sapiens, UniProt Q13133); test: LanthaScreen TR-FRET Liver X Receptor Coactivator Assay, co-activator recruitment to LXRalpha LBD; type: biochemical; settings: for pEC50: read-out: LXR alpha IP
T2 construct: purchased Invitrogen pv4655
T2 sequence (Q13133 209-447 limits assumed): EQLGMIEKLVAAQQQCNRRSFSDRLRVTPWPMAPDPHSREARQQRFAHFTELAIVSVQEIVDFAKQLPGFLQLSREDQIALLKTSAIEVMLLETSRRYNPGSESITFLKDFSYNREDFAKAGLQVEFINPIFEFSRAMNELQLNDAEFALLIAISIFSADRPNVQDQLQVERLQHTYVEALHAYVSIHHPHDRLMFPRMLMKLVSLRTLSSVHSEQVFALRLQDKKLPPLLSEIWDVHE
Summary of the method: as §1

[3] = efficacy at max dose, in relation to reference dual agonist T0901317, read-out: LXR beta Activity @ max dose (%)
[4] = potency (Inflection Point, IP), co-activator recruitment to LXRbeta LBD, in relation to T0901317, read-out: LXR beta IP
[5] = efficacy at max dose, in relation to reference dual agonist T0901317, read-out: LXR alpha Activity @ max dose (%)
[6] = potency (Inflection Point, IP), co-activator recruitment to LXRalpha LBD, in relation to T0901317
[7] = efficacy at max dose, in relation to reference dual agonist T0901317

Structure (SMILES) | Emax [1, 3] [%] | pEC50 [1, 4] | Emax [2, 5] [%] | pEC50 [2, 6] | LXR alpha IP (nM) [2, 6] | pEC50 ([1]; co-activator recruitment to GST-LXRbeta LBD, TR-FRET, read-out: LXR beta IP (Inflection Point, potency)) | Emax ([1]; efficacy in relation to reference dual agonist T0901317, read-out: LXR beta Activity @ max dose) [%] | LXR alpha IP (Inflection Point, potency) ([2]; co-activator recruitment to GST-LXRalpha LBD, TR-FRET) | Emax ([2]; efficacy in relation to reference dual agonist T0901317, read-out: LXR alpha Activity @ max dose) [%] | LXR beta Activity @ max dose (%) [1, 7] [%] | LXR alpha Activity @ max dose (%) [2, 7] [%]
CC(C)C(O)(C(=O)N1CCC(CC2CCN(c3ccc(C(=O)N(C)C)c(Cl)n3)CC2)CC1)C(F)(F)F (stereo not drawn) [Example 7-59, 2-chloro-6-[4-({1-[2-hydroxy-3-methyl-2-(trifluoromethyl)butanoyl]piperidin-4-yl}methyl)piperidin-1-yl]-N,N-dimethylpyridine-3-carboxamide] | 107 | 6.53 | 39 | 5.57 | – | – | – | – | – | – | –
CN(CCn1cncn1)C(=O)c1ccc(N2CCC(CC3CCN(C(=O)[C@](O)(c4cc(Cl)cc(Cl)c4)C(F)(F)F)CC3)CC2)cc1Cl [Example 4-26, 2-chloro-4-[4-({1-[(2R)-2-(3,5-dichlorophenyl)-3,3,3-trifuoro-2-hydroxypropanoyl]piperidin-4-yl}methyl)piperidin-1-yl]-N-methyl-N-[2-(1H-1,2,4-triazol-1-yl)ethyl]benzamide] | 67 | 8.40 | 3 | – | NO IP | – | – | – | – | – | –
CNC(=O)c1ccc(N2CCC(CC3CCN(C(=O)[C@](O)(c4cccc(Cl)c4)C(F)(F)F)CC3)CC2)nc1Cl [Example 7-147, 2-chloro-6-[4-({1-[(2R)-2-(3-chlorophenyl)-3,3,3-trifluoro-2-hydroxypropanoyl]piperidin-4-yl}methyl)piperidin-1-yl]-N-methylpyridine-3-carboxamide] | 100 | 8.40 | 63 | 7.29 | – | – | – | – | – | – | –
CNC(=O)c1ccc(N2CCC(CC3CCN(C(=O)[C@](O)(c4cccc(Br)c4)C(F)(F)F)CC3)CC2)cc1Cl [Example 7-119, 4-[4-({1-[(2R)-2-(3-bromophenyl)-3,3,3-trifluoro-2-hydroxypropanoyl]piperidin-4-yl}methyl)piperidin-1-yl]-2-chloro-N-methyl-benzamide] | 82 | 7.92 | 32 | 6.74 | – | – | – | – | – | – | –
COc1cccc(CS(=O)(=O)N2CC(CC3CCN(c4ccc(C(=O)N(C)C)c(Cl)c4)CC3)C2)c1 [Example 13-3, 2-chloro-4-[4-({1-[(3-methoxybenzyl)-sulfonyl]azetidin-3-yl}methyl)piperidin-1-yl]-N,N-dimethyl-benzamide] | – | – | – | – | – | 6.22 | 26 | NO IP | 0 | – | –
CCc1cccc(C(O)(C(=O)N2CCC(CC3CCN(c4ccc(C(=O)N(C)C)c(Cl)c4)CC3)CC2)C(F)(F)F)c1 (stereo not drawn) [Example 2-39, 2-chloro-4-[4-({1-[2-(3-ethylphenyl)-3,3,3-trifluoro-2-hydroxy-propanoyl]piperidin-4-yl}methyl)piperidin-1-yl]-N,N-dimethyl-benzamide] | 30 | 7.44 | 2 | 5.75 | – | – | – | – | – | – | –
CNC(=O)c1ccc(N2CCC(CC3CCN(C(=O)[C@](O)(c4ccccc4)C(F)(F)F)CC3)CC2)cc1Cl [Example 7-126, 2-chloro-N-methyl-4-[4-({1-[(2R)-3,3,3-trifluoro-2-hydroxy-2-phenylpropanoyl]piperidin-4-yl}methyl)piperidin-1-yl]benzamide] | – | 7.72 | – | 6.34 | – | – | – | – | – | 91 | 46
CCc1cccc([C@@](O)(C(=O)N2CCC(CC3CCN(c4ccc(C(N)=O)c(Cl)c4)CC3)CC2)C(F)(F)F)c1 [Example 12-6, 2-chloro-4-[4-({1-[(2R)-2-(3-ethylphenyl)-3,3,3-trifluoro-2-hydroxy-propanoyl]piperidin-4-yl}methyl)piperidin-1-yl]benzamide] | 40 | 8.15 | 23 | 7.52 | – | – | – | – | – | – | –
CN(C)C(=O)c1ccc(N2CCC(CC3CCN(C(=O)C(N)(c4ccccc4)C(F)(F)C(F)(F)F)CC3)CC2)cc1Cl (stereo not drawn) [Example 2-123, 4-(4-{[1-(2-amino-3,3,4,4,4-pentafluoro-2-phenylbutanoyl)piperidin-4-yl]methyl}piperidin-1-yl)-2-chloro-N,N-dimethyl-benzamide] | 106 | 6.47 | 21 | 5.83 | – | – | – | – | – | – | –
